Columns and labels:
[1] = target: T1, human TRPM2 (Homo sapiens, UniProt O94759); experiment: fluo-4 Ca2+ assay selectivity, HEK cells expressing human TRPM2; type: cell-based; conditions: concentrations up to 50 μM
T1 construct: expressed in transfected cells; host or cells: HEK293
Source text: (§1) KU-19-19 (DSMZ no. ACC 395), CAL-29 (DSMZ no. ACC 515), 647-V (DSMZ no. ACC 414), RT-4 (DSMZ no. ACC 412), and RT-112 (DSMZ no. ACC 418) bladder cancer cell lines were obtained from the Leibniz Institute DSMZ (German Collection of Microorganisms and Cell Cultures). Human TRPV3 (NM_145068, purchased from OriGene) and mouse TRPV3 (NM_001371006), rat TRPV1, mouse TRPV2, mouse TRPV4, human TRPM2, human TRPM8, and human TRPA1 were stably transfected in HEK293 cells as described before.[27] […]
(§2) All fluorometric Ca^2+ assays were performed in HBS buffer at room temperature. […] For the primary compound screening and the generation of concentration-response analyses, a robotic liquid handling station (Freedom Evo 150; Tecan) with a built-in custom-made fluorescence plate imager was used. […] Fluorescence was excited using a 470-nm light-emitting diode, and emitted light was imaged through a 515-nm–long pass filter with a cooled Zyla 5.5 camera (Andor). Fluorescence was recorded and processed under the control of the μ-Manager 2.0 gamma software (https://micro-manager.org.[28]). After recording baseline fluorescence, compounds were dispensed into the wells via the liquid handling device. […] For further analysis, fluorescence signals were calculated for each well, corrected for background intensities and normalized to the initial signals. […]

[2] = target: T2, mouse TRPV3 (Mus musculus, UniProt Q8K424); experiment: fluo-4 fluorometric Ca2+ assay, concentration-response, HEK cells expressing mouse TRPV3; type: cell-based; conditions: HEK cells expressing mouse TRPV3, fluo-4, room temperature, mean ± SD back-transformed from log space, n=5; read-out: EC50 for mouse TRPV3 activation
T2 construct: expressed in transfected cells; host or cells: HEK293
T2 sequence (Q8K424 1-791): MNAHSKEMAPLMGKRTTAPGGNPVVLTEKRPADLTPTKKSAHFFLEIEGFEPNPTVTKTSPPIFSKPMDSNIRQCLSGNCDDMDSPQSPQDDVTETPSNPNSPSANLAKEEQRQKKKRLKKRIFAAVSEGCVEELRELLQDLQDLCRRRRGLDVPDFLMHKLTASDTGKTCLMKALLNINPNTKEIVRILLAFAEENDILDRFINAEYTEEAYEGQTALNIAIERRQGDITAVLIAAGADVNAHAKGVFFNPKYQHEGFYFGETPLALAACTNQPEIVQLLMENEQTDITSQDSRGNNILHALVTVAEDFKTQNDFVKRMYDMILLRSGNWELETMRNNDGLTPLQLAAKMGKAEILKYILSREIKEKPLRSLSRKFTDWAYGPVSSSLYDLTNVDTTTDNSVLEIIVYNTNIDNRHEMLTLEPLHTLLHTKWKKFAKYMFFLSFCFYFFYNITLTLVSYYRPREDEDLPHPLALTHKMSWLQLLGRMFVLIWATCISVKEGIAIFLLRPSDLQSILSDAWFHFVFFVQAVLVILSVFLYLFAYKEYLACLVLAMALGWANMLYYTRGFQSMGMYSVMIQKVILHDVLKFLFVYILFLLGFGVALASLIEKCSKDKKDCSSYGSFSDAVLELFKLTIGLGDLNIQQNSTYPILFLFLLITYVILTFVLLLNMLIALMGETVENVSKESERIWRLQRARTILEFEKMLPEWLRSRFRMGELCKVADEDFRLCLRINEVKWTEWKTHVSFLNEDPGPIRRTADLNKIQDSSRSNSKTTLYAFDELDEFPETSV
Source text: as §1, §2

T1 sequence (O94759 whole entry): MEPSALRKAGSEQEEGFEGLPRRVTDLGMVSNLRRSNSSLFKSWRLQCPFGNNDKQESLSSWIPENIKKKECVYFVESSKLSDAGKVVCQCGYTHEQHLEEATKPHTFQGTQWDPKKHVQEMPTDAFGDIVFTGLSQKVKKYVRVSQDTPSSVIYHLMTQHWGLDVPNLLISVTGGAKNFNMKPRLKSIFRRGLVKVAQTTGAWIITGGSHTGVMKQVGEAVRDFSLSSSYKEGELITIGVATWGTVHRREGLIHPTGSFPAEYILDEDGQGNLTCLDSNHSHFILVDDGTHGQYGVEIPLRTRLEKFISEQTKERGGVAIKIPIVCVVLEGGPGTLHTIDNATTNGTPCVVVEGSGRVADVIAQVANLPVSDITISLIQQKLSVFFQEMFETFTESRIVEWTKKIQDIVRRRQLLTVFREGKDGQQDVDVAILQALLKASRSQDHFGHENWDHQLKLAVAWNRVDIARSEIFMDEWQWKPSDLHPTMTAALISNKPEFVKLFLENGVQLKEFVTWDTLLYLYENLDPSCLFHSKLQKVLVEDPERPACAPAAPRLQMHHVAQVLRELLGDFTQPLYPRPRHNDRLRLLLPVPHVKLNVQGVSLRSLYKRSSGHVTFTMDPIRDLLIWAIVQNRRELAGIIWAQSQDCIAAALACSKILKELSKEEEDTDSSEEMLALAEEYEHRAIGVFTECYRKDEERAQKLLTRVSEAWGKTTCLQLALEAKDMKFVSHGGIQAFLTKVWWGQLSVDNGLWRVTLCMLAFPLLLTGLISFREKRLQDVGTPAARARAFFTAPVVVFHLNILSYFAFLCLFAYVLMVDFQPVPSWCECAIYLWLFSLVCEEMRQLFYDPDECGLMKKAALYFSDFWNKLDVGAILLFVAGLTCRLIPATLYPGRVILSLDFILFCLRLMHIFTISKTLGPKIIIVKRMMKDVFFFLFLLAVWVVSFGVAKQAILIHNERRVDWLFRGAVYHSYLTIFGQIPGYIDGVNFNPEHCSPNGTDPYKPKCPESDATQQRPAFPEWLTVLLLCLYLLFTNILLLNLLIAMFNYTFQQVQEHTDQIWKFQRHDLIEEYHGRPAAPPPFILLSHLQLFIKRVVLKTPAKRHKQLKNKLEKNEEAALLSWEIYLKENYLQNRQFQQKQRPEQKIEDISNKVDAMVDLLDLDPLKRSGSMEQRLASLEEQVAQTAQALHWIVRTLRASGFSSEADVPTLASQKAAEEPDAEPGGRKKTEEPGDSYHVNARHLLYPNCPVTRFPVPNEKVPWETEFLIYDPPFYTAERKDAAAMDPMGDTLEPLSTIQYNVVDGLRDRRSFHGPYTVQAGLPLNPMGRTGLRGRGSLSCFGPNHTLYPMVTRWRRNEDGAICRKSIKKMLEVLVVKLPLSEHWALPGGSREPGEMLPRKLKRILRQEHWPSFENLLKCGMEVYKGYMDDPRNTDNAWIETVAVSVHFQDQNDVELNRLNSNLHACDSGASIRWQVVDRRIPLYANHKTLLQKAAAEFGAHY

COC(=O)C12CN(Cc3ccccc3)CC1(C(=O)OC)CN(Cc1ccccc1)C2 (centres unmarked) [AV3-1]
effect on TRPM2 [1]: no effect | EC50 [2]: 2000 ± 1400 nM

From article PMC12881674, “Activation of TRPV3 channels in bladder cancer cells stimulates ATP release” (Molecular Pharmacology, 2025)
